Experimental data published in publication PMC3369547, “Antimicrobial Constituents of Artemisia afra Jacq. ex Willd. against Periodontal Pathogens” (Evidence-based Complementary and Alternative Medicine : eCAM, 2012).
In brackets after ≈: the same amount, converted by molar mass. Where two headings read alike, the source gives them in different places. *1 amine or outer side, *2 acyl side, *3 side chain or, on linkers, in order; H or OH if unused. Where a SMILES comes first, the peptide text is derived from it. Bridges are numbered along the chain shown (N, C = ends). Roman numbers before positions name the chains, in order. [ ]: non-standard residue; d: D form. Actinocin(9to1) = Cc1c2oc3c(C)ccc(C(=O)[*:1])c3nc-2c(C(=O)[*:2])c(N)c1=O; NMeV = CN[C@H](C(=O)O)C(C)C; Sar = CNCC(=O)O

Experiments:
[1] = DPPH free radical scavenging assay; format: biochemical; details: 37°C, 30 min, 517 nm
Protocol: The free radical scavenging activity was measured using 1, 1 diphenyl-2-picryl-hydraxyl (DPPH) assay with slight modifications. The ethanol extract of A. afra and Vitamin C (positive control) 1000 μg/mL (20 μL) was added in the first three wells of a 96-well plate containing 200 μL of distilled water to make up final concentration of 100 μg/mL and the remaining wells were filled with 110 μL of distilled water. The first raws containing the extract/compounds were serially diluted to wells which contain 110 μL of distilled water, and later, 90 μL of methanolic solution of DPPH ([…]) was added to all the wells. The final concentrations of the extract/compounds ranged from 100 to 0.8 μg/mL. The plates were incubated at 37°C for 30 min and the absorbance was measured at 517 nm using the ELISA plate reader. The percent radical scavenging activity by A. afra was determined by comparison with ethanol (blank). The inhibition ratio was calculated as follows: % DPPH radical-scavenging = (AC-AS)/AC × 100, where AC is absorbance of the control solution (containing only DPPH solution), and AS is the absorbance of the sample in DPPH solution. The percentage of DPPH radical-scavenging was plotted against the plant extract/compounds concentrations (μg/mL) to determine the concentration of extract/compound required to scavenge DPPH by 50% (EC50).

[2] = system: Actinomyces naeslundii (ATCC 19039); assay: Microdilution MIC/MMC (INT) against Actinomyces naeslundii; format: cell-based; details: A.n, Gram +ve, table title says mg/mL; for MBC: MMC in title
Protocol: (§1) The microorganisms used in this study include Actinomyces naeslundii (ATCC 19039), Actinomyces israelii (ATCC 10049), Aggregatibacter actinomycetemcomitans (ATCC 33384), Candida albicans (Med I), Porphyromonas gingivalis (ATCC 33277), Prevotella intermedia (ATCC 25611), and Streptococcus mutans (ATCC 25175). Bacteria were grown in the Casein-peptone Soy Agar medium (CASO) (Merck SA (Pty) Ltd.) under anaerobic conditions in a jar with anaerocult A (Merck SA (Pty) Ltd.), at 37°C for 48 hours. Sabouraud Dextrose Agar medium (SDA) (Merck SA (Pty) Ltd.) was used for the culturing of Candida albicans and incubated at 37°C for 24 hours under aerobic conditions. Subculturing was done once weekly.
(§2) The microdilution technique using 96-well microplates was used to obtain the MIC and MMC values of the crude extract against microorganisms under study. The extract was serially diluted in the 96-well plate with 48 hours old microorganisms (5 × 10^6 CFU/mL) grown at 37°C and the final concentration of extract and positive control (CHX) ranged from 25.0 mg/mL to 0.8 mg/mL. Microbial growth was indicated by adding 40 μL of (0.2 mg/mL) p-iodonitrotetrazolium violet (INT) (Sigma-Aldrich, South Africa) to microplate wells and incubated at 37°C for 48 hours. MIC was defined as the lowest concentration that inhibited the colour change of INT. […] These suspensions were reincubated at 37°C for 48 hours. The MMC was determined as the lowest concentration of extract which inhibited 100% growth of microorganisms.

[3] = system: Actinomyces israelii (ATCC 10049); assay: Microdilution MIC/MMC (INT) against Actinomyces israelii; format: cell-based; details: A.i, Gram +ve, table title says mg/mL; for MBC: MMC in title
Protocol: as §1, §2

[4] = system: Aggregatibacter actinomycetemcomitans (ATCC 33384); assay: Microdilution MIC/MMC (INT) against Aggregatibacter actinomycetemcomitans; format: cell-based; details: A.a, Gram –ve, table title says mg/mL; for MBC: MMC in title
Protocol: as §1, §2

[5] = system: Prevotella intermedia (ATCC 25611); assay: Microdilution MIC/MMC (INT) against Prevotella intermedia; format: cell-based; details: P.i, Gram –ve, table title says mg/mL; for MBC: MMC in title
Protocol: as §1, §2

[6] = system: Porphyromonas gingivalis (ATCC 33277); assay: Microdilution MIC/MMC (INT) against Porphyromonas gingivalis; format: cell-based; details: P.g, Gram –ve, table title says mg/mL; for MBC: MMC in title
Protocol: as §1, §2

[7] = system: Candida albicans (Med I); assay: Microdilution MIC/MMC (INT) against Candida albicans; format: cell-based; details: C.a, Yeast, table title says mg/mL; for MBC: MMC in title
Protocol: as §1, §2

[8] = system: oral microorganisms; assay: Microdilution MIC/MMC, summary over tested microbial species; format: cell-based; details: against A. israelii and A. naeslundii; for MIC: read-out: lowest MIC and MMC value
Protocol: as §1, §2

[9] = system: McCoy fibroblast cells; assay: XTT cell proliferation (cytotoxicity) assay on McCoy cells; format: cell-based; details: McCoy cells, XTT, 48 h
Protocol: (§3) Extract and compounds were dissolved in dimethyl sulfoxide (DMSO) and stored at −20°C. All tested compounds were diluted to the final concentration with RPMI 1640 and control cultures were diluted with 0.1% DMSO.
(§4) McCoy cells were maintained in monolayer culture at 37°C and 5% CO2 with 10% […] Medium, 10 μg/mL of penicillin, 10 μg/mL, streptomycin, 40 μg/mL gentamycin, and 0.25 μg/mL fungizone.
(§5) A microtiter plate with McCoy cells was used for testing all the ethanol extracts for cytotoxicity following the method of [26]. Cytotoxicity was measured by the XTT (sodium 3′-[1-(phenyl amino-carbonyl)-3,4-tetrazolium]-bis-[4-methoxy-6-nitro] benzene sulfonic acid hydrate) method using a cell proliferation kit II (Roche Diagnostics GmbH). Hundred microlitres of McCoy cells (1 × 10^5 mL) was seeded onto a microtiter plate and incubated for 24 h to allow the cells to attach to the bottom of the plate. Dilution series were made of the extract and compound and the various concentrations (400 to 3.1 μg/mL) were added to the microtitre plate and incubated for 48 h. The XTT reagents were added to a final concentration of 0.3 mg/mL and the cells were incubated for 1-2 hours. The positive drug control (Zearalenone) at concentrations range of (10 μg/mL to 0.6 μg/mL) was included in the assay. After incubation the absorbance of the colour was spectrophotometrically quantified using an ELISA plate reader, which measured the optical density at 490 nm with a reference wavelength of 690 nm. The assay was carried out in triplicate.

[10] = as above; format: cell-based; details: mouse
Protocol: as §3, §4, §5

[11] = system: lung cancer (A549) cell; design: method as in PMID 15246561; details: A549 cells; read-out: IC50 cell proliferation; cited from earlier work
[12] = system: murine melanoma B16 cell line; design: method as in PMID 15363977; details: B16 cells; cited from earlier work
[13] = Actinomyces naeslundii, ATCC19039
[14] = Actinomyces israelii, ATCC10049
[15] = Aggregatibacter actinomycetemcomitans, ATCC33384
[16] = Prevotella intermedia, ATCC25611, read-out: MBC
[17] = Prevotella intermedia, ATCC25611
[18] = Porphyromonas gingivalis, ATCC33277
[19] = Porphyromonas gingivalis, ATCC33277, read-out: MIC
[20] = Actinomyces israelii, ATCC10049, read-out: MBC
[21] = Actinomyces israelii, ATCC10049, read-out: MIC
[22] = Prevotella intermedia, ATCC25611, read-out: MIC
[23] = McCoy cells, XTT, 48 h, read-out: IC50 (cytotoxicity)

| Compound | DPPH scavenging IC50 [1] [µg/mL] | MBC [2, 13] [µg/mL] | MIC [2, 13] [µg/mL] | MBC [3, 14] [µg/mL] | MBC [4, 15] [µg/mL] | MIC [4, 15] [µg/mL] | MIC [5, 17] [µg/mL] | MBC [6, 18] [µg/mL] | MBC [7] [µg/mL] | MIC [7] [µg/mL] | MBC [5, 17] [µg/mL] | MIC [6, 18] [µg/mL] | MIC [3, 21] [µg/mL] | other results |
| --- | --- | --- | --- | --- | --- | --- | --- | --- | --- | --- | --- | --- | --- | --- |
| O=C1O[C@H]([C@@H](O)CO)C(O)=C1O [vitamin C, reference compound] | 1.22 |  |  |  |  |  |  |  |  |  |  |  |  |  |
| C=C1C(=O)OC2C1C(OC(C)=O)CC(=C)C1(O)C=CC(C)(O)C21 (stereo not drawn) [compound 2, 12α,4α-dihydroxybishopsolicepolide] |  | 1000 (≈ 3120 µM) | 500 (≈ 1560 µM) | 500 (≈ 1560 µM) | > 1000 | > 1000 | 1000 (≈ 3120 µM) | > 1000 | > 1000 | > 1000 |  |  |  | MIC [3, 14]: 500 µg/mL (≈ 1560 µM); MBC [5, 16]: 1 µg/mL (≈ 3.12 µM); MIC [6, 19]: > 1 µg/mL |
| scopoletin [compound 3] | 1.24 |  |  |  |  |  |  |  | > 1000 | > 1000 |  |  |  | MBC [2]: >1.0 µg/mL; MIC [2]: 1000 µg/mL; MBC [3]: 500 µg/mL; MIC [3]: 250 µg/mL; MBC [4]: > 1000 µg/mL; MIC [4]: > 1000 µg/mL; MBC [5]: 1.0 µg/mL; MIC [5]: 500 µg/mL; MBC [6]: > 1000 µg/mL; MIC [6]: >1.0 µg/mL; lowest MIC and MMC value [8]: 250 µg/mL; IC50 (cytotoxicity) [9]: 132.5 µg/mL |
| COc1ccc(-c2cc(=O)c3c(O)cc(O)cc3o2)cc1 [compound 1, acacetin] | 2.39 | 1000 (≈ 3520 µM) | 1000 (≈ 3520 µM) | 500 (≈ 1760 µM) | > 1000 | > 1000 | 1000 (≈ 3520 µM) | > 1000 | > 1000 | > 1000 | > 1000 | 1000 (≈ 3520 µM) |  | MIC [3, 14]: 250 µg/mL (≈ 879 µM); MIC [8]: 250 µg/mL (≈ 879 µM); IC50 at 48 h [10]: 35.4 µg/mL (≈ 125 µM); IC50 [11]: 9.46 µM |
| C[C@H]1[C@H](C)CC[C@]2(C)CC[C@]3(C)C(=CC[C@@H]4[C@@]5(C)CC[C@H](O)C(C)(C)[C@@H]5CC[C@]43C)[C@H]12 [compound 4, α-amyrin] |  |  | 1000 (≈ 2340 µM) |  | > 1000 | > 1000 |  | > 1000 | > 1000 | > 1000 | > 1000 |  | > 1 | MBC ([2]; Actinomyces naeslundii, ATCC19039, read-out: MBC): > 1 µg/mL; MBC [3, 20]: > 1 µg/mL; MIC [5, 22]: > 1 µg/mL; MIC [6, 19]: > 1 µg/mL |
| [H]/N=C(\N/C(=N/[H])NCCCCCCNC(=N)NC(=N)Nc1ccc(Cl)cc1)Nc1ccc(Cl)cc1 [Chlorhexidine, chlorhexidine, reference compound] |  | 1600 (≈ 3170 µM) | 1600 (≈ 3170 µM) |  |  |  |  |  |  |  |  | 1600 (≈ 3170 µM) | 6.3 (≈ 12.5 µM) | MBC [3, 20]: 6.3 µg/mL (≈ 12.5 µM); MBC ([4]; Aggregatibacter actinomycetemcomitans, ATCC33384, read-out: MBC): 1.6 µg/mL (≈ 3.17 µM); MIC ([4]; Aggregatibacter actinomycetemcomitans, ATCC33384, read-out: MIC): 1.6 µg/mL (≈ 3.17 µM); MBC [5, 16]: 6.3 µg/mL (≈ 12.5 µM); MIC [5, 22]: 6.3 µg/mL (≈ 12.5 µM); MBC ([6]; Porphyromonas gingivalis, ATCC33277, read-out: MBC): 1.6 µg/mL (≈ 3.17 µM); MBC ([7]; read-out: MBC): 1.25 µg/mL (≈ 2.47 µM); MIC ([7]; read-out: MIC): 6.3 µg/mL (≈ 12.5 µM) |
| Cc1c2oc3c(C)ccc(C(=O)N[C@@H]4C(=O)N[C@H](C(C)C)C(=O)N5CCC[C@H]5C(=O)N(C)CC(=O)N(C)[C@@H](C(C)C)C(=O)O[C@@H]4C)c3nc-2c(C(=O)N[C@@H]2C(=O)N[C@H](C(C)C)C(=O)N3CCC[C@H]3C(=O)N(C)CC(=O)N(C)[C@@H](C(C)C)C(=O)O[C@@H]2C)c(N)c1=O [Actinomycin-D, reference compound] (I: T[dV]P[Sar][NMeV] / II: T[dV]P[Sar][NMeV]; ester I:1-I:C, II:1-II:C; linker I:N-II:N via Actinocin(9to1)) |  |  |  |  |  |  |  |  |  |  |  |  |  | IC50 at 48 h [10, 23]: 0.00336 µg/mL (≈ 0.00268 µM) |
| phytol [compound 5] |  |  |  |  |  |  |  |  | > 1000 | > 1000 |  |  |  | MBC [2]: >1.0 µg/mL; MIC [2]: >1.0 µg/mL; MBC [3]: >1.0 µg/mL; MIC [3]: >1.0 µg/mL; MBC [4]: > 1000 µg/mL; MIC [4]: > 1000 µg/mL; MBC [5]: > 1000 µg/mL; MIC [5]: >1.0 µg/mL; MBC [6]: > 1000 µg/mL; MIC [6]: >1.0 µg/mL |
| C=C(C)[C@@H]1CC[C@]2(C(=O)O)CC[C@]3(C)[C@H](CC[C@@H]4[C@@]5(C)CC[C@H](O)C(C)(C)[C@@H]5CC[C@]43C)[C@@H]12 [compound 6, betulinic acid] | 2.42 | 500 (≈ 1090 µM) |  | 1000 (≈ 2190 µM) | > 1000 | > 1000 | 1000 (≈ 2190 µM) | > 1000 | > 1000 | > 1000 | > 1000 | 1000 (≈ 2190 µM) | 1 (≈ 2.19 µM) | MIC ([2]; Actinomyces naeslundii, ATCC19039, read-out: MIC): 0.25 µg/mL (≈ 0.547 µM); MIC [8]: 250 µg/mL (≈ 547 µM); IC50 at 48 h [10, 23]: 31 µg/mL (≈ 67.8 µM); IC50 apoptotic effects [12]: 22.5 µg/mL (≈ 49.3 µM) |
